From ChEMBL document CHEMBL1144426, “Adenosine kinase inhibitors. 4. 6,8-Disubstituted purine nucleoside derivatives. Synthesis, conformation, and enzyme inhibition” (J Med Chem, 2005)

Biological target: Adenosine kinase (Homo sapiens, UniProt P55263)
Assay: Inhibitory activity against Human Recombinant Adenosine Kinase

Sequence of Adenosine kinase (P55263 whole entry): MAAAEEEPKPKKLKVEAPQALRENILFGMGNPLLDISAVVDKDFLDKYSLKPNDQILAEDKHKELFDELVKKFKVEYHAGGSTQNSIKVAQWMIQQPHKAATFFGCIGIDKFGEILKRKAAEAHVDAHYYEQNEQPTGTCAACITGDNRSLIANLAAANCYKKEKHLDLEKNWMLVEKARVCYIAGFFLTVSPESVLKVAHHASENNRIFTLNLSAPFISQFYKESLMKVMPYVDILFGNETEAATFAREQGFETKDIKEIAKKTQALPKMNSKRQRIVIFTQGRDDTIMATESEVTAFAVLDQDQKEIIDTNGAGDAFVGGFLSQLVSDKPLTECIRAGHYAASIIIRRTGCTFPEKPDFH

| SMILES | IC50 [nM] |
| --- | --- |
| C[C@H]1O[C@@H](n2cc(-c3ccccc3)c3c(N4CCc5ccccc54)ncnc32)[C@H](O)[C@@H]1O | 51 |
| OC[C@H]1O[C@@H](n2cnc3c(N4CCc5ccccc54)ncnc32)[C@H](O)[C@@H]1O | 500 |
| CSc1nc2c(N3CCc4ccccc43)ncnc2n1[C@@H]1O[C@H](CO)[C@@H](O)[C@H]1O | 150 |
| C[C@H]1O[C@@H](n2c(Nc3ccccc3)nc3c(N4CCc5ccccc54)ncnc32)[C@H](O)[C@@H]1O | 200 |
| C#Cc1nc2c(N3CCc4ccccc43)ncnc2n1[C@@H]1O[C@H](CO)[C@@H](O)[C@H]1O | 1000 |
| OC[C@H]1O[C@@H](n2c(Cl)nc3c(N4CCc5ccccc54)ncnc32)[C@H](O)[C@@H]1O | 480 |
| OC[C@H]1O[C@@H](n2c(-c3ccco3)nc3c(N4CCc5ccccc54)ncnc32)[C@H](O)[C@@H]1O | 2900 |
| CCc1nc2c(N3CCc4ccccc43)ncnc2n1[C@@H]1O[C@H](CO)[C@@H](O)[C@H]1O | 230 |
| OC[C@H]1O[C@@H](n2c(N3CCc4ccccc43)nc3c(N4CCc5ccccc54)ncnc32)[C@H](O)[C@@H]1O | 2000 |

Next, values leading:

| IC50 [nM] | SMILES |
| --- | --- |
| 300 | C=Cc1nc2c(Nc3ccccc3)ncnc2n1[C@@H]1O[C@H](CO)[C@@H](O)[C@H]1O |
| 1000 | OC[C@H]1O[C@@H](n2c(I)nc3c(N4CCc5ccccc54)ncnc32)[C@H](O)[C@@H]1O |
| 3600 | OC[C@H]1O[C@@H](n2c(Cl)nc3c(Nc4ccccc4)ncnc32)[C@H](O)[C@@H]1O |
| 90 | OC[C@H]1O[C@@H](n2c(Nc3ccccc3)nc3c(Nc4ccccc4)ncnc32)[C@H](O)[C@@H]1O |
| 1000 | CSc1nc2c(Nc3ccccc3)ncnc2n1[C@@H]1O[C@H](CO)[C@@H](O)[C@H]1O |
| 7100 | OC[C@H]1O[C@@H](n2c(N3CCc4ccccc43)nc3c(Nc4ccccc4)ncnc32)[C@H](O)[C@@H]1O |
| 60 | C=Cc1nc2c(N3CCc4ccccc43)ncnc2n1[C@@H]1O[C@H](CO)[C@@H](O)[C@H]1O |
| 6900 | OC[C@H]1O[C@@H](n2c(-c3ccco3)nc3c(Nc4ccccc4)ncnc32)[C@H](O)[C@@H]1O |
| 4500 | OC[C@H]1O[C@@H](n2c(I)nc3c(Nc4ccccc4)ncnc32)[C@H](O)[C@@H]1O |
| 19 | OC[C@H]1O[C@@H](n2c(Nc3ccccc3)nc3c(N4CCc5ccccc54)ncnc32)[C@H](O)[C@@H]1O |
